Assay results published in patent publication US12606528B2, “Methods and materials for inhibiting NF-kB activity” (University of Pittsburgh - Of the Commonwealth System of …, priority 2019, dated 2026).
Where two headings read alike, the source gives them in different places.

Columns and labels:
NF-κB = NF-κB assay: THP1-NF-κB-LUC cells, LPS-stimulated secreted luciferase; type: cell-based; conditions: THP1-NF-κB-LUC cells, read-out: IC50 (NF-κB assay)
Method in brief: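 THP1-NF-κB-LUC cells (25k/well) were pretreated with compounds for 2 h, then stimulated with LPS (10 ng/mL) for 18 h. Secreted luciferase was measured and normalized to vehicle, and IC50 was fitted from the concentration series.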

TNF release = assay: TNF assay: TNF release from LPS-stimulated human PBMCs (TNF ELISA); type: cell-based; conditions: PBMC, read-out: IC50 (TNF assay)
Method in brief: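 Human PBMCs at 10k/well pretreated with compound dilutions 2 h, then stimulated with LPS (10 ng/mL) for 18 h. TNF in supernatants quantified by ELISA; IC50 for inhibition of TNF release fitted from concentration–response.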

[1] = compounds 2 hours before LPS (10 ng/mL) for 18 hours, secreted luciferase
[2] = human PBMCs, compounds 2 hours before LPS (10 ng/ml) for 18 hours, supernatant TNF ELISA
[3] = LPS-stimulated human PBMCs, TNF ELISA

SMILES | IC50 (NF-κB; [1]) [µM] | IC50 (TNF release; [2]) [µM] | IC50 (NF-κB; LPS-stimulated) [µM] | IC50 (TNF release; [3]) [µM]
Cc1ccc(NS(=O)(=O)c2cc(Cl)cc3c2OC(C)C(=O)N3)cc1F (stereo not drawn) [BC19701] | < 0.1 | > 10 |  | 
Fc1ccc(-c2nc3ccc(-c4ccncc4)cc3nc2-c2ccc(F)cc2)cc1 [BC19245] |  |  | 1 to 10 | > 10
Cc1nc(-c2ccc3nc(-c4ccc(F)cc4)c(-c4ccc(F)cc4)nc3c2)no1 [BC19190] |  |  | 0.1 to 1 | > 10
Cc1ccc(-c2nc3ccc(S(=O)(=O)NCCCN4CCN(C)CC4)cc3nc2-c2ccc(C)cc2)cc1 [BC19561] |  |  | 0.1 to 1 | > 10
CCc1ccc(NS(=O)(=O)c2cc3c(cc2Br)NC(=O)CO3)cc1 [BC19138] | < 0.1 | > 10 |  | 
CCc1nnc(-c2ccc3nc(-c4ccc(F)cc4)c(-c4ccc(F)cc4)nc3c2)o1 [BC19246] |  |  | 1 to 10 | > 10
N#Cc1cnc2nc(-c3ccc(F)cc3)c(-c3ccc(F)cc3)nc2c1 [BC19495] |  |  | 0.1 to 1 | > 10
O=S(=O)(NCc1ccncc1)c1ccc2nc(-c3ccc(F)cc3)c(-c3ccc(F)cc3)nc2c1 [BC19558] |  |  | 0.1 to 1 | > 10
O=c1[nH]ccc2cc(Sc3ccc(F)cc3)ccc12 [BC19580] | > 10 | > 10 |  | 
CC1Oc2c(cc(Cl)cc2S(=O)(=O)Nc2ccccc2)NC1=O (stereo not drawn) [BC19291] | < 0.1 | > 10 |  | 
CCC[S+]([O-])c1sc(-c2ccc(Cl)cc2)nc1S(=O)(=O)c1ccc(Cl)cc1 (stereo not drawn) [BC19533] |  |  | 1 to 10 | 1 to 10
CNC(=O)c1ccc2nc(-c3cccs3)c(-c3ccc(F)cc3)nc2c1 [BC19119] |  |  | < 0.1 | < 0.1
Cc1nnc(-c2ccc3nc(-c4ccc(F)cc4)c(-c4ccc(F)cc4)nc3c2)[nH]1 [BC19102] |  |  | 0.1 to 1 | > 10
CN1CC(=O)Nc2ccc(S(=O)(=O)N3CCCC3)cc21 [BC19181] |  |  | > 10 | > 10
CC(=O)N1CC(=O)Nc2ccc(S(=O)(=O)N3CCCC3)cc21 [BC19295] |  |  | < 0.1 | > 10
CCS(=O)(=O)c1cc2c(c(S(=O)(=O)Nc3ccc(F)cc3)c1)OCC(=O)N2 [BC19443] | < 0.1 | > 10 |  | 
Fc1ccc(-c2nc3ccc(-c4nnnn4CCN4CCOCC4)cc3nc2-c2ccc(F)cc2)cc1 [BC19238] |  |  | < 0.1 | > 10
O=S(=O)(CC1CC1)c1sc(-c2cccc(F)c2)nc1S(=O)(=O)c1ccc(Cl)cc1 [BC19592] |  |  | 1 to 10 | 1 to 10
O=S(=O)(c1ccc(F)cc1)c1nc(-c2ccccc2)[nH]c1[S+]([O-])C1CCCCC1 (stereo not drawn) [BC19586] |  |  | 1 to 10 | > 10

SMILES | IC50 (NF-κB; [1]) [µM] | IC50 (TNF release; [2]) [µM] | IC50 (NF-κB; LPS-stimulated) [µM] | IC50 (TNF release; [3]) [µM]
CC1Oc2c(cc(Cl)cc2S(=O)(=O)Nc2ccc(Cl)cc2)NC1=O (stereo not drawn) [BC19697] | < 0.1 | > 10 |  | 
COc1cccc(-c2nc(S(=O)(=O)c3ccc(Cl)cc3)c(S(C)(=O)=O)[nH]2)c1 [BC19410] |  |  | 0.1 to 1 | > 10
CN1CCN(C(=O)c2ccc3nc(-c4ccc(F)cc4)c(-c4ccc(C#N)cc4)nc3c2)CC1 [BC19316] |  |  | 0.1 to 1 | > 10
CN1CCN(Cc2ccc3nc(-c4ccc(F)cc4)c(-c4ccc(F)cc4)nc3c2)CC1 [BC19577] |  |  | 0.1 to 1 | > 10
O=S(=O)(CC1CC1)c1sc(-c2ccc3ccccc3c2)nc1S(=O)(=O)c1ccc(Cl)cc1 [BC19676] |  |  | 1 to 10 | > 10
CC1Oc2cc(S(=O)(=O)N3CCOCC3)c(Br)cc2NC1=O (stereo not drawn) [BC19217] | > 10 | > 10 |  | 
C[S+]([O-])c1sc(-c2ccc3ccccc3c2)nc1S(=O)(=O)c1ccc(Cl)cc1 (stereo not drawn) [BC19671] |  |  | 1 to 10 | < 0.1
O=S(=O)(c1ccc(F)cc1)c1cnccc1O [BC19459] | > 10 | > 10 |  | 
CC(C)S(=O)(=O)c1sc(-c2ccc(Cl)cc2)nc1S(=O)(=O)c1ccc(F)cc1 [BC19538] |  |  | 1 to 10 | 1 to 10
COCC[S+]([O-])c1oc(-c2cccc(F)c2)nc1S(=O)(=O)c1ccc(Cl)cc1 (stereo not drawn) [BC19351] |  |  | 0.1 to 1 | < 0.1
CNc1ncc(-c2ccc3nc(-c4ccc(F)cc4)c(-c4ccc(F)cc4)nc3c2)o1 [BC19619] |  |  | 1 to 10 | > 10
CCCS(=O)(=O)c1snc(-c2ccc(F)cc2)c1S(=O)(=O)c1ccc(Cl)cc1 [BC19682] |  |  | 0.1 to 1 | < 0.1
O=S(=O)(NC1CC1)c1ccc2nc(-c3ccc(F)cc3)c(-c3ccc(F)cc3)nc2c1 [BC19505] |  |  | 0.1 to 1 | > 10
CCC1Oc2cc(S(=O)(=O)Nc3ccc(F)c(F)c3)c(Cl)cc2NC1=O (stereo not drawn) [BC19735] | < 0.1 | > 10 |  | 
CCC[S+]([O-])c1sc(-c2ccc3ccccc3c2)nc1S(=O)(=O)c1ccc(Cl)cc1 (stereo not drawn) [BC19673] |  |  | 1 to 10 | > 10
NC(=O)c1ccc2nc(-c3ccc(F)cc3)c(C(F)(F)F)nc2c1 [BC19117] |  |  | > 10 | > 10
O=S(=O)(CC1CC1)c1[nH]c(-c2ccccc2)nc1S(=O)(=O)c1ccc(F)cc1 [BC19470] |  |  | > 10 | > 10
CC(C)CC(=O)N1c2cc(S(=O)(=O)N3CCCC3)ccc2NC(=O)C1C (stereo not drawn) [BC19184] |  |  | > 10 | > 10
O=S1(=O)CCCn2c(-c3ccccc3)nc(S(=O)(=O)c3ccc(Cl)cc3)c21 [BC19647] |  |  | > 10 | 1 to 10

SMILES | IC50 (NF-κB; [1]) [µM] | IC50 (TNF release; [2]) [µM] | IC50 (NF-κB; LPS-stimulated) [µM] | IC50 (TNF release; [3]) [µM]
CCCS(=O)(=O)c1oc(-c2cccc(F)c2)nc1S(=O)(=O)c1ccc(Cl)cc1 [BC19345] |  |  | 0.1 to 1 | 0.1 to 1
O=c1c(S(=O)(=O)c2ccc(F)cc2)c[nH]c2cccnc12 [BC19124] | > 10 | > 10 |  | 
C[C@H](Cl)C(=O)Nc1ccc2nc(-c3ccc(F)cc3)c(-c3ccc(F)cc3)nc2c1 [BC19315] |  |  | 0.1 to 1 | > 10
O=S(=O)(CCCCN1CCOCC1)c1ccc2nc(-c3ccc(F)cc3)c(-c3ccc(F)cc3)nc2c1 [BC19508] |  |  | 0.1 to 1 | 1 to 10
CC(C)S(=O)(=O)c1oc(-c2cccc(F)c2)nc1S(=O)(=O)c1ccc(Cl)cc1 [BC19411] |  |  | < 0.1 | < 0.1
CCC1Oc2cc(S(=O)(=O)NCc3ccc(C(F)(F)F)cc3)c(Br)cc2NC1=O (stereo not drawn) [BC19370] | > 10 | > 10 |  | 
CCC1Oc2c(cc(Br)cc2S(=O)(=O)Nc2ccc(C(C)C)cc2)N(C)C1=O (stereo not drawn) [BC19933] | < 0.1 | 1 to 10 |  | 
Cc1ccc(NS(=O)(=O)c2cc(Br)cc3c2OC(C)C(=O)N3C)cc1Cl (stereo not drawn) [BC19796] | < 0.1 | 1 to 10 |  | 
CN1CCN(C(=O)c2ccc3nc(-c4ccc(Cl)cc4)c(-c4ccc(Cl)cc4)nc3c2)CC1 [BC19450] |  |  | 1 to 10 | > 10
O=S(=O)(c1ccccc1)c1cnccc1O [BC19461] | > 10 | > 10 |  | 
Cc1ccc(NS(=O)(=O)c2cc3c(cc2Cl)NC(=O)C(C)O3)cc1Cl (stereo not drawn) [BC19708] | < 0.1 | > 10 |  | 
CC(C)CNS(=O)(=O)c1cc2c(cc1Br)NC(=O)C(C)O2 (stereo not drawn) [BC19218] | > 10 | > 10 |  | 
CC1Oc2c(cc(Cl)cc2S(=O)(=O)Nc2ccc(C(C)C)cc2)NC1=O (stereo not drawn) [BC19705] | < 0.1 | > 10 |  | 
CC(C)[S+]([O-])c1c(S(=O)(=O)c2ccc(F)cc2)nc(-c2ccccc2)n1C (stereo not drawn) [BC19601] |  |  | > 10 | > 10
CC(=O)N1CCC(C(=O)Nc2ccc3nc(-c4ccc(F)cc4)c(-c4ccc(F)cc4)nc3c2)CC1 [BC19310] |  |  | < 0.1 | > 10
Cc1nnc(-c2ccc3nc(C(F)(F)F)c(-c4ccc(F)cc4)nc3c2)o1 [BC19151] |  |  | > 10 | > 10
COc1ccc(S(=O)(=O)c2cnccc2O)cc1OC [BC19455] | > 10 | > 10 |  | 
CCOc1ccc(NS(=O)(=O)c2cc3c(cc2Br)NC(=O)CO3)cc1 [BC19135] | > 10 | > 10 |  | 
CC1Oc2cc(S(=O)(=O)Nc3cccc(F)c3)c(Cl)cc2NC1=O (stereo not drawn) [BC19713] | 0.1 to 1 | 1 to 10 |  | 
